One series has as its system endogenous TFEB. The experiment in a line: TFEB nuclear translocation, immunocytochemistry high-content imaging. Format: cell-based.
For another series, the system named is endogenous TFE3. The experiment in a line: TFE3 nuclear translocation, immunocytochemistry high-content imaging. Format: cell-based.
For series [1], the system named is SH-SY5Y cells. Kind of series: Chemotype enrichment analysis of PKIS2 primary screen hit categories.
Series [2] relates to SH-SY5Y cells.
Text: The PKIS2 Library was supplied by The Structural Genomics Consortium at the University of North Carolina at Chapel Hill.
The test system of series [3] is SH-SY5Y cells. The conditions noted are these: human.
Experimental: Total cell lysis with 5 µL 5% Triton-X 100 (Sigma-Aldrich, T8787) is used as a positive control for the assay and toxicity is expressed as a percentage of luminescence under DMSO conditions.
In series [4] the test system is SH-SY5Y cells. The conditions noted are these: human. The source holds these as a separate data set.

Each structure is given as a SMILES string. Where two headings read alike, the source gives them in different places.
For AK in this document: reference of the scale not given here.
For DQ Intensity in this document: reference of the scale not given here.
For DQ Spot in this document: reference of the scale not given here.
For Nuclear Count in this document: reference of the scale not given here.

The molecule `CCCC(=O)Nc1n[nH]c2ncc(-c3cccc4ccccc34)cc12` [SB-642057] registered a TFEB % with endogenous TFEB of 5.52%. The same molecule registered a TFE3 % in the series with endogenous TFE3 of 14.05%. Besides, the Outcome entry in the series with SH-SY5Y cells [1] is recorded as “TOXIC”. In the series with SH-SY5Y cells [2], the “DQ Intensity” value is reported as 126.93 and the “DQ Spot” value is given as 107.10. In the series on SH-SY5Y cells [3] (SH-SY5Y cells, 24 h, 1 µM), this molecule registered an AK of 230.70. Further, the “Nuclear Count” value in the series with SH-SY5Y cells [4] (SH-SY5Y cells, 24 h, 1 µM) is given as 59.85.

`CSc1ccc(NC2=C(c3ccccc3Cl)C(=O)NC2=O)cc1` [UNC10225346A] came in with a TFEB % in the series with endogenous TFEB of 6.03%. The TFE3 % in the series with endogenous TFE3 is on record as 14.52%. For the same molecule, in the series with SH-SY5Y cells [2], the “DQ Intensity” value is recorded as 121.64 and the “DQ Spot” value is given as 113.39. The molecule further displayed an AK in the series with SH-SY5Y cells [3] (SH-SY5Y cells, 24 h, 1 µM) of 105.29. In the series with SH-SY5Y cells [4] (SH-SY5Y cells, 24 h, 1 µM), the “Nuclear Count” value is given as 103.43.

For `Cc1ccc(C(=O)NC2CCCC2)cc1-c1ccc(C(=O)NCC2CC2)cc1` [UNC10225270A], in the series on endogenous TFEB, the TFEB % was 16.20%. For the same molecule, the TFE3 % in the series on endogenous TFE3 is listed as 10.04%. For the same molecule, in the series on SH-SY5Y cells [2], the “DQ Intensity” value is given as 84.15 and the “DQ Spot” value turned out to be 81.23. Besides, the AK in the series with SH-SY5Y cells [3] (24 h, 1 µM) is 80.83. Moreover, in the series on SH-SY5Y cells [4] (24 h, 1 µM), the “Nuclear Count” value turned out to be 92.17.

In the case of `Nc1n[nH]c2ncc(-c3ccccc3)cc12` [SB-517081], the TFEB % with endogenous TFEB is recorded as 4.88%. Moreover, the TFE3 % in the series on endogenous TFE3 is reported as 10.19%. The Outcome result with SH-SY5Y cells [1] is given as “DQ Only”. In addition, in the series on SH-SY5Y cells [2], the “DQ Intensity” value worked out at 121.05 and the “DQ Spot” value was found to be 122.46. In the series with SH-SY5Y cells [3] (SH-SY5Y cells, 24 h, 1 µM), the AK is 82.09. The “Nuclear Count” value in the series on SH-SY5Y cells [4] (SH-SY5Y cells, 24 h, 1 µM) is on record as 74.04.

Take `O=C(Nc1n[nH]c2nc(-c3ccccc3O)ccc12)C1CC1` [SB-711880]: the TFEB % in the series with endogenous TFEB is 4.35%. Moreover, the TFE3 % in the series with endogenous TFE3 was found to be 12.20%. Besides, in the series on SH-SY5Y cells [2], the “DQ Intensity” value is on record as 70.14 and the “DQ Spot” value was determined as 92.53. Further, in the series on SH-SY5Y cells [3] (SH-SY5Y cells, 24 h, 1 µM), the AK is on record as 88.20. Further, the “Nuclear Count” value in the series with SH-SY5Y cells [4] (SH-SY5Y cells, 24 h, 1 µM) was found to be 102.12.

In the series with endogenous TFEB, `O=C(Nc1n[nH]c2nc(-c3cccc(O)c3)ccc12)C1CC1` [SB-711805] showed a TFEB % of 10.76%. In the series with endogenous TFE3, this molecule gave a TFE3 % of 23.15%. Also, in the series with SH-SY5Y cells [1], the Outcome entry is recorded as “TFE3”. In the series with SH-SY5Y cells [2], the “DQ Intensity” value turned out to be 78.27 and the “DQ Spot” value is reported as 112.05. In addition, the AK in the series with SH-SY5Y cells [3] (SH-SY5Y cells, 24 h, 1 µM) is 105.72. Also, the “Nuclear Count” value with SH-SY5Y cells [4] (SH-SY5Y cells, 24 h, 1 µM) is recorded as 107.31.

In the case of `O=C(Nc1n[nH]c2cc(-c3cccc(F)c3)ccc12)C1CC1` [SB-735464], in the series on endogenous TFEB, the TFEB % worked out at 2.08%. For the same molecule, the TFE3 % in the series on endogenous TFE3 came out at 14.17%. In the series on SH-SY5Y cells [2], the “DQ Intensity” value stood at 82.14 and the “DQ Spot” value is given as 107.31. Besides, the AK with SH-SY5Y cells [3] (SH-SY5Y cells, 24 h, 1 µM) came out at 75.61. In the series with SH-SY5Y cells [4] (SH-SY5Y cells, 24 h, 1 µM), the “Nuclear Count” value was 95.28.

In turn, `Cc1ccc(-n2nc(C(C)(C)C)cc2NC(=O)Nc2ccc(OCCN3CCOCC3)c3ccccc23)cc1` [UNC10225354A] registered a TFEB % in the series with endogenous TFEB of 7.39%. In the series on endogenous TFE3, this molecule returned a TFE3 % of 11.86%. In the series on SH-SY5Y cells [2], the “DQ Intensity” value is 143.22 and the “DQ Spot” value is on record as 116.14. The AK in the series with SH-SY5Y cells [3] was 120.63. The “Nuclear Count” value with SH-SY5Y cells [4] stood at 65.33.

`O=C(Nc1n[nH]c2nc(-c3cccs3)c(Br)cc12)C1CCCC1` [SB-743341] had a TFEB % in the series on endogenous TFEB of 21.21%. In the series on endogenous TFE3, this molecule displayed a TFE3 % of 12.29%. Besides, in the series on SH-SY5Y cells [2], the “DQ Intensity” value is 118.79 and the “DQ Spot” value stood at 104.54. In the series on SH-SY5Y cells [3] (SH-SY5Y cells, 24 h, 1 µM), this molecule showed an AK of 91.49. Moreover, the “Nuclear Count” value with SH-SY5Y cells [4] (SH-SY5Y cells, 24 h, 1 µM) was 111.90.

In the series on endogenous TFEB, `O=C(Nc1n[nH]c2cc(-c3cccs3)ccc12)C1CC1` [SB-731284] came in with a TFEB % of 12.38%. Besides, in the series with endogenous TFE3, the TFE3 % is recorded as 10.84%. In the series on SH-SY5Y cells [2], the “DQ Intensity” value is listed as 119.55 and the “DQ Spot” value was found to be 107.15. The molecule also came in with an AK in the series with SH-SY5Y cells [3] (SH-SY5Y cells, 24 h, 1 µM) of 71.30. The “Nuclear Count” value in the series with SH-SY5Y cells [4] (SH-SY5Y cells, 24 h, 1 µM) is on record as 98.09.

Consider `O=C(Nc1n[nH]c2nc(-c3nccs3)c(Br)cc12)C1CCCC1` [SB-742609], for which the TFEB % in the series with endogenous TFEB was 8.05%. This molecule also gave a TFE3 % in the series on endogenous TFE3 of 7.93%. Moreover, in the series with SH-SY5Y cells [2], the “DQ Intensity” value is recorded as 95.35 and the “DQ Spot” value is listed as 108.28. Also, in the series with SH-SY5Y cells [3] (SH-SY5Y cells, 24 h, 1 µM), the AK turned out to be 69.40. In addition, in the series on SH-SY5Y cells [4] (SH-SY5Y cells, 24 h, 1 µM), the “Nuclear Count” value is recorded as 69.12.

As to `O=C(Nc1n[nH]c2nc(-c3ccco3)c(Br)cc12)C1CCN(Cc2ccccc2)C1` (stereo not shown) [SB-742034], in the series with endogenous TFEB, the TFEB % was 3.21%. For the same molecule, in the series on endogenous TFE3, the TFE3 % is recorded as 21.82%. In the series on SH-SY5Y cells [1], the Outcome entry is recorded as “TFE3”. Moreover, in the series on SH-SY5Y cells [2], the “DQ Intensity” value is listed as 103.44 and the “DQ Spot” value amounted to 100.36. In the series with SH-SY5Y cells [3] (SH-SY5Y cells, 24 h, 1 µM), this molecule displayed an AK of 87.38. Besides, in the series with SH-SY5Y cells [4] (SH-SY5Y cells, 24 h, 1 µM), the “Nuclear Count” value is on record as 103.32.

In turn, `COc1ccccc1C1=C(Nc2cccc(O)c2)C(=O)NC1=O` [UNC10225043A] yielded a TFEB % with endogenous TFEB of 8.14%. The same molecule showed a TFE3 % with endogenous TFE3 of 13.36%. In the series on SH-SY5Y cells [2], the “DQ Intensity” value is 136.47 and the “DQ Spot” value came out at 112.45. Further, the AK with SH-SY5Y cells [3] (24 h, 1 µM) is reported as 125.63. Further, the “Nuclear Count” value in the series on SH-SY5Y cells [4] (24 h, 1 µM) stood at 83.80.

Consider `COc1cccc(-c2ccc3c(NC(=O)C4CC4)n[nH]c3n2)c1` [SB-710903], for which, in the series with endogenous TFEB, the TFEB % stood at 9.14%. In addition, in the series on endogenous TFE3, the TFE3 % is recorded as 8.53%. Besides, in the series on SH-SY5Y cells [2], the “DQ Intensity” value is 82.25 and the “DQ Spot” value came to 92.88. Moreover, the AK with SH-SY5Y cells [3] (SH-SY5Y cells, 24 h, 1 µM) is given as 104.06. In addition, in the series with SH-SY5Y cells [4] (SH-SY5Y cells, 24 h, 1 µM), the “Nuclear Count” value was determined as 105.81.

Source of the values: PMC9851200, “Multiparameter phenotypic screening for endogenous TFEB and TFE3 translocation identifies novel chemical series modulating lysosome function” (Autophagy, 2022).
